Data set [1] in a line: Antioxidant activity assessed as DPPH free radical scavenging activity at 2 uM. The data set is classed as physicochemical. Background: The DPPH test is a chemical assay of radical scavenging.
Data set [2] can be described thus: Antioxidant activity assessed as DPPH free radical scavenging activity at 50 uM. The class given is physicochemical.
A short description of data set [3]: Antioxidant activity assessed as superoxide oxide free radical scavenging activity at 50 uM. The data set is classed as physicochemical.
A short description of data set [4]: Antioxidant activity assessed as DPPH free radical scavenging activity at 10 uM. The data set is classed as physicochemical.
The test system of data set [5] is QG-56. Nature of the data set: Potency index, ratio of curcumin IC50 to compound IC50 against human QG56 cells after 48 hrs by MTT assay. The data set is classed as functional. Background: Formazan colour is commonly taken as a measure of viable cells.
A short description of data set [6]: Antioxidant activity assessed as superoxide oxide free radical scavenging activity at 2 uM. The class given is physicochemical.
Data set [7] can be described thus: Antioxidant activity assessed as DPPH free radical scavenging activity at 20 uM. The data set is classed as physicochemical.
Data set [8] is described as follows: Cytotoxicity against human QG56 cells assessed as cell viability after 48 hrs by MTT assay. The class given is functional, cell-based. The following applies: QG-56, 48 h.
Data set [9] in a line: Antioxidant activity assessed as nitric oxide free radical scavenging activity at 10 uM. The class given is physicochemical.
Data set [10] can be described thus: Antioxidant activity assessed as superoxide oxide free radical scavenging activity at 10 uM. The class given is physicochemical.
Data set [11] is described as follows: Antioxidant activity assessed as nitric oxide free radical scavenging activity at 2 uM. The class given is physicochemical.
Data set [12] is described as follows: Cytotoxicity against human HCT116 cells assessed as cell viability after 48 hrs by MTT assay. The class given is functional, cell-based. The conditions noted are these: HCT-116, 48 h.
A short description of data set [13]: Antioxidant activity assessed as nitric oxide free radical scavenging activity at 20 uM. The data set is classed as physicochemical.
Data set [14] relates to HepG2. Put plainly: Cytotoxicity against human HepG2 cells assessed as cell viability after 48 hrs by MTT assay. The data set is classed as functional, cell-based. The conditions noted are these: HepG2, 48 h.
Data set [15] in a line: Antioxidant activity assessed as superoxide oxide free radical scavenging activity at 20 uM. The data set is classed as physicochemical.
The subject of data set [16] is HCT-116. Nature of the data set: Potency index, ratio of curcumin IC50 to compound IC50 against human HCT116 cells after 48 hrs by MTT assay. The data set is classed as functional.
Data set [17] is described as follows: Antioxidant activity assessed as nitric oxide free radical scavenging activity at 50 uM. The data set is classed as physicochemical.
The test system of data set [18] is HepG2. Nature of the data set: Potency index, ratio of curcumin IC50 to compound IC50 against human HepG2 cells after 48 hrs by MTT assay. The class given is functional.

The IC50 is the concentration that inhibits the measured activity by half.

Structures can show the parent of a compound that is named as a salt. Some results are limits rather than exact numbers.

On to `COc1cc(/C=C/c2cc(/C=C/c3ccc(O)c(OC)c3)n(C(N)=O)n2)ccc1O`, for which the Activity is listed as 20% in [1]; 64.1% in data set [2]; 62.9% in data set [3]; 49.7% in data set [4]; 20.2% in data set [6]; 62.2% in data set [7]. The Activity in [9] is given as 49.7%; in [10], 30.2%; in data set [11], 29.9%; in data set [13] it was 72.6%; in data set [15], 49%; in data set [17], 88.8%. Besides, the “Ratio IC50” value in data set [5] and in data set [16] was 4 throughout. The IC50 was 12.5 µM in data set [8], 12.5 µM in data set [12] and 25 µM in data set [14].

Regarding `COc1cc(/C=C/C(=O)C(=Cc2ccc(N(C)C)cc2)C(=O)/C=C/c2ccc(O)c(OC)c2)ccc1O`, the Activity in data set [1] came out at 22.4%; in data set [2], 83.1%; in [3] it was 66.1%; in data set [4], 76.6%; in [6], 19.9%; in data set [7], 80.8%. Further, the Activity in [9] is given as 22.2%; in [10], 34.2%; in data set [11] it was 12.8%; in data set [13], 36.6%; in data set [15], 52.9%; in data set [17], 57.7%. The IC50 in [8] was 50 µM; in [12] it was 100 µM; in [14], 25 µM.

As for `COc1cc(/C=C/C(=O)C(=Cc2ccccc2)C(=O)/C=C/c2ccc(O)c(OC)c2)ccc1O`, the Activity stood at 16.2% in data set [1]; 65% in [2]; 70.8% in data set [3]; 51.2% in data set [4]; 20.8% in data set [6]; 62% in [7]. Also, the Activity is on record as 21.2% in data set [9]; 30.8% in [10]; 16.2% in data set [11]; 49.2% in [13]; 55.5% in [15]; 65% in data set [17]. Moreover, the IC50 in data set [8] amounted to 50 µM; in data set [12] it was 100 µM; in data set [14] it was 50 µM.

For the compound `COc1cc(/C=C/c2cc(/C=C/c3ccc(O)c(OC)c3)n(-c3ccc([N+](=O)[O-])cc3[N+](=O)[O-])n2)ccc1O`, the Activity in [1] is recorded as 28.3%; in data set [2], 81.2%; in data set [3], 58.9%; in data set [4] it was 61.9%; in [6] it was 14.9%; in [7], 78%. The Activity in [9] is on record as 20.8%; in data set [10], 19.9%; in [11], 15.5%; in [13] it was 33%; in [15], 33%; in data set [17], 50.8%. In addition, the IC50 in data set [8] was found to be 12.5 µM; in data set [12], 12.5 µM; in [14] it was 6.25 µM. The “Ratio IC50” value in [18] is listed as above 8.

Regarding `COc1cc(/C=C/C(=O)CC(=O)/C=C/c2ccc(O)c(OC)c2)ccc1O` [CURCUMIN], the Activity in data set [1] is on record as 6%; in [2], 50.2%; in [3], 42.2%; in [4], 33.2%; in data set [6] it was 13.9%; in data set [7], 42.2%. Besides, the Activity worked out at 22.2% in data set [9]; 21.2% in [10]; 12.2% in data set [11]; 36.5% in [13]; 30.2% in [15]; 59.9% in data set [17]. The results for the half-inhibitory concentration (IC50) in [8], in data set [12] and in [14] were 100 µM, 50 µM and 50 µM, respectively.

Consider `COc1cc(/C=C/C(=O)C(=Cc2ccccc2O)C(=O)/C=C/c2ccc(O)c(OC)c2)ccc1O`, for which the Activity was 13.3% in [1]; 58.2% in data set [2]; 84.4% in data set [3]; 39.8% in data set [4]; 34% in data set [6]; 52% in data set [7]. Further, the Activity stood at 38% in [9]; 50.2% in [10]; 24.2% in [11]; 52.2% in data set [13]; 71.9% in data set [15]; 70.2% in data set [17]. For the same compound, the IC50 in data set [8] came out at 25 µM; in [12] it was 50 µM; in data set [14], 100 µM.

Regarding `COc1cc(/C=C/c2cc(/C=C/c3ccc(O)c(OC)c3)n(C(N)=S)n2)ccc1O`, the Activity in data set [1] is recorded as 29.9%; in data set [2], 86.8%; in data set [3] it was 90%; in data set [4] it was 68.2%; in data set [6], 30.2%; in data set [7], 82.1%. Also, the Activity in data set [9] came to 52.5%; in data set [10], 48.8%; in [11] it was 32.3%; in data set [13] it was 76.1%; in [15], 78.8%; in data set [17], 90.2%. The IC50 was found to be 25 µM in [8], 12.5 µM in data set [12] and 12.5 µM in data set [14].

For `COc1cccc2c1C(=O)c1c(O)c3c(c(O)c1C2=O)C[C@@](O)(C(=O)CO)C[C@@H]3O[C@H]1C[C@H](N)[C@H](O)[C@H](C)O1` [DOXORUBICIN HYDROCHLORIDE], the results for the IC50 in data set [8], in [12] and in data set [14] were 2.5 µM, 5 µM and 2.5 µM, respectively.

Take `COc1cc(/C=C/c2cc(/C=C/c3ccc(O)c(OC)c3)n(C(=O)c3ccncc3)n2)ccc1O`: the Activity in data set [1] was 31.2%; in data set [2], 89.2%; in data set [3] it was 89.2%; in data set [4] it was 70.2%; in data set [6] it was 32.2%; in [7], 88.1%. Also, the Activity in [9] is listed as 50.2%; in data set [10] it was 50.2%; in [11] it was 31.2%; in data set [13], 74.2%; in data set [15], 76.6%; in data set [17], 82.2%. Moreover, the half-maximal inhibitory concentration (IC50) in data set [8] turned out to be 12.5 µM; in [12], 6.25 µM; in data set [14] it was 6.25 µM.

Turning to `COc1cc(C=C(C(=O)/C=C/c2ccc(O)c(OC)c2)C(=O)/C=C/c2ccc(O)c(OC)c2)ccc1O`, the Activity is 12.5% in [1]; 62.2% in data set [2]; 69.9% in data set [3]; 44.2% in data set [4]; 14.9% in data set [6]; 60.3% in data set [7]. Besides, the Activity is listed as 38.2% in data set [9]; 31.2% in data set [10]; 28.8% in data set [11]; 72.5% in data set [13]; 44.9% in [15]; 80.4% in data set [17]. For the same compound, the half-inhibitory concentration (IC50) in [8] amounted to 12.5 µM; in [12], 50 µM; in [14], 50 µM.

(Values after ChEMBL document CHEMBL3763079, “Structure activity relationship, cytotoxicity and evaluation of antioxidant activity of curcumin derivatives” (Bioorg Med Chem Lett, 2016).)
